Experimental data taken from US5677152A, “Nucleic acid amplification using a reersibly inactivated thermostable enzyme” (Roche Molecular Systems, Inc., priority 1996, dated 1997).

B1: citraconylated rTth: citraconylated thermostable DNA polymerase from Thermus thermophilus (protein, UniProt P52028 1-834, looked up)
DNA polymerase I, thermostable: MEAMLPLFEPKGRVLLVDGHHLAYRTFFALKGLTTSRGEPVQAVYGFAKSLLKALKEDGYKAVFVVFDAKAPSFRHEAYEAYKAGRAPTPEDFPRQLALIKELVDLLGFTRLEVPGYEADDVLATLAKKAEKEGYEVRILTADRDLYQLVSDRVAVLHPEGHLITPEWLWEKYGLRPEQWVDFRALVGDPSDNLPGVKGIGEKTALKLLKEWGSLENLLKNLDRVKPENVREKIKAHLEDLRLSLELSRVRTDLPLEVDLAQGREPDREGLRAFLERLEFGSLLHEFGLLEAPAPLEEAPWPPPEGAFVGFVLSRPEPMWAELKALAACRDGRVHRAADPLAGLKDLKEVRGLLAKDLAVLASREGLDLVPGDDPMLLAYLLDPSNTTPEGVARRYGGEWTEDAAHRALLSERLHRNLLKRLEGEEKLLWLYHEVEKPLSRVLAHMEATGVRLDVAYLQALSLELAEEIRRLEEEVFRLAGHPFNLNSRDQLERVLFDELRLPALGKTQKTGKRSTSAAVLEALREAHPIVEKILQHRELTKLKNTYVDPLPSLVHPRTGRLHTRFNQTATATGRLSSSDPNLQNIPVRTPLGQRIRRAFVAEAGWALVALDYSQIELRVLAHLSGDENLIRVFQEGKDIHTQTASWMFGVPPEAVDPLMRRAAKTVNFGVLYGMSAHRLSQELAIPYEEAVAFIERYFQSFPKVRAWIEKTLEEGRKRGYVETLFGRRRYVPDLNARVKSVREAAERMAFNMPVQGTAADLMKLAMVKLFPRLREMGARMLLQVHDELLLEAPQARAEEVAALAKEAMEKAYPLAVPLEVEVGMGEDWLSAKG
modifications: citraconylated

Tests used:
[1] = tested on: HIV-1 genomic sequence; assay: Effect of pre-reaction incubation time on PCR product (HIV-1 model system); type: biochemical; conditions: for amplified product without a pre-reaction incubation (FIG. 4): 0 minutes pre-reaction incubation, compared with extended incubation
Procedure: Amplifications were carried out using the citraconylated and cis-aconitylated Taq DNA polymerases prepared as described above. For each set of amplification conditions, Taq DNA polymerases modified using a 80-fold and a 160-fold molar excess of citaconic anhydride, and a 90-fold and a 180-fold molar excess of cis-aconitic anhydride were used. Amplifications were carried out using the HIV-1 model system described in Example 6, above, except that the initial pre-reaction incubation was varied. For each enzyme preparation, amplifications were carried out using pre-reaction incubations of 12, 6, 3, and 0 minutes.
As noted above, the pre-reaction incubation step also serves as the initial denaturation step. Each cycle of a PCR begins with a denaturation step. Immediately following the initial pre-reaction incubation carried out at 95° C. for 12, 6, 3, or 0 minutes, each reaction mixture is incubated at 94° C. for 1 minute during the denaturation step of the first cycle. Thus, even when no pre-reaction incubation was used, enzyme activity is recovered during the denaturation step of the initial cycles.
The amplification products were analyzed by agarose gel electrophoresis. The band corresponding to the amplified target sequence is indicated. Bands appearing on the gel other than the band which corresponds to the amplified target sequence correspond to the products generated by the non-specific amplification of non-target sequences.

[2] = tested on: HIV-1 genomic sequence; assay: Effect of amplification cycle number on PCR product (HIV-1 model system); type: biochemical; conditions: no pre-reaction incubation; 39, 43, 48, 60 cycles
Procedure: Amplifications were carried out using the Taq DNA polymerases modified using a 80-fold and a 160-fold molar excess of citraconic anhydride, and a 90-fold and a 180-fold molar excess of cis-aconitic anhydride. The Amplifications were carried out essentially as described above using the HIV-1 model system described in Example 6, except that the initial pre-reaction incubation and cycle numbers were varied. For each enzyme preparation, amplifications were carried out using the following conditions: […]
The amplification products were analyzed by agarose gel electrophoresis.

[3] = tested on: cloned HTLV-I genomic sequence; assay: PCR amplification of HTLV-I with citraconylated Taq DNA polymerase, agarose gel analysis; type: biochemical; conditions: 30 copies HTLV-I template; pre-reaction incubation 90° C. for 10 minutes; enzyme dilutions 1/10-1/80
Procedure: Amplifications were carried out using 1/20, 1/40, and 1/80 dilutions of the 240× modified Taq DNA polymerase described in Example 2. Dilutions were made in a buffer consisting of 20 mM Tris-HCl, pH 8.0 (at room temperature), 100 mM KCl, 0.1 mM EDTA (ethylenediaminetetraacetic acid), 1 mM DTT (dithiothreitol), 50% glycerol, 0.5% Tween 20, 0.5% Nonidet P40 (AmpliTaq®storage buffer, Perkin Elmer, Norwalk, Conn.). For comparison, amplifications also were carried out using 1/10, 1/20, 1/40, and 1/80 dilutions of unmodified Taq DNA polymerase.
A cloned HTLV-I genomic sequence was amplified using primers SK432 and SK111. The primer sequences are provided in U.S. Pat. No. 5,418,149, incorporated herein by reference. The PCR was carried out in a 100 μl reaction volume under the following reaction conditions.
30 copies of HTLV-I DNA template
(§1) 200 μM dATP, dCTP, and dGTP
0.5 μl of citraconylated Taq DNA polymerase solution
(§2) 1 unit of UNG (Perkin Elmer, Norwalk, Conn.) […]
The amplified products were analyzed by 4% agarose gel electrophoresis using a 1× TBE (0.089M Tris, 0.089M boric acid, 0.0025M disodium EDTA) running buffer. Electrophoresis was carried out at 100 volts for approximately 2 hours. Ethidium bromide (0.5 μg/ml) was added following electrophoresis to stain any DNA present. The gel was destained in 1× TBE and the ethidium bromide-stained bands of DNA were visualized using UV irradiation. […]

[4] = tested on: HIV-1 genomic sequence; assay: PCR amplification of HIV-1 with citraconylated DNA polymerases, agarose gel analysis; type: biochemical; conditions: 100 copies HIV-1 template; pre-reaction incubation 95° C. for 12 minutes; enzyme dilutions 1/10-1/80
Procedure: Amplifications were carried out using dilutions of modified DNA polymerases. Dilutions were made in a buffer consisting of 20 mM Tris-HCl, pH 8.0 (at room temperature), 100 mM KCl,0.1 mM EDTA (ethylenediaminetetraacetic acid), 1 mM DTT (dithiothreitol), 50% glycerol, 0.5% Tween 20, 0.5% Nonidet P40 (AmpliTaq® storage buffer, Perkin Elmer, Norwalk, Conn.).
An HIV-1 genomic sequence was amplified using primers SK145 and SK431 (Perkin Elmer, Norwalk, Conn.). The PCR was carried out in a 100 μl reaction volume under the following reaction conditions.
100 copies of HIV-1 DNA template
as §1
0.5 μl of DNA polymerase solution
as §2
The pre-reaction incubation step also serves as the initial denaturation step. An initial denaturation step is routinely used in a typical amplification reaction to insure complete denaturation of the double-stranded target. Each cycle of the PCR begins with a denaturation step of 94° C. for 1 minute. Thus, immediately following the initial pre-reaction incubation carried out at 95° C. for 12 minutes, the reaction mixture is incubated at 94° C. for 1 minute during the denaturation step of the first cycle.
The amplified products were analyzed by agarose gel electrophoresis (100 ml of 3% NuSieve and 0.5% SeaChem) using a 1× TBE (0.089M Tris, 0.089M boric acid, 0.0025M disodium EDTA) running buffer. Electrophoresis was carried out at 100 volts for approximately 1 hour. Ethidium bromide (0.5 μg/ml) was added following electrophoresis to stain any DNA present. The gel was destained in TBE and the ethidium bromide-stained bands of DNA were visualized using UV irradiation.
Dilutions (1/10, 1/20, 1/40, and 1/80) of the citraconylated DNA polymerases described in Example 5 and the 240× citriconylated Taq DNA polymerase described in Example 2 were used in amplifications of HIV-1 nucleic acid and the amplified products were anaylzed by agarose gel electrophoresis. For comparison, amplifications were carried out using dilutions of unmodified Taq DNA polymerase. […]

[5] = Storage stability of inactivated enzyme; type: physicochemical; conditions: stored at 25° C.

Molecule	amplified product without a pre-reaction incubation (FIG. 4) [1]	amplified product band over pre-reaction incubation times (FIG. 4) ([1]; pre-reaction incubations of 12, 6, 3 and 0 minutes at 95° C.)	effect of increasing the amplification cycle number on amplified product (FIG. 5) [2]	amplified target band versus non-specific amplification products (FIG. 2) [3]	amplified target band versus non-specific amplification products (FIG. 3) [4]	pre-reaction incubation required to obtain the maximum amount of amplified product ([1]; 95° C. pre-reaction incubation)	storage stability: time enzyme remains inactivated [5]
cis-aconitylated DNA polymerase: Taq DNA polymerase modified using cis-aconitic anhydride (90× and 180× preparations)	nearly as much product as the amplifications using an extended pre-reaction incubations	all pre-reaction incubation times resulted in a strong band corresponding to amplified product	The effect was smallest	–	–	–	–
citraconylated Taq DNA polymerase: Taq DNA polymerase modified using citraconic anhydride; 240× in Examples 4 and 6, 80× and 160× in Examples 9 and 10	significantly less amplified product	–	–	significant increase in the intensity of the band corresponding to the amplified target sequence, and a significant decrease in the intensity of the bands corresponding to non-specific amplification products	intense band corresponding to the amplified target sequence for all but the 1/80 dilution	at least 3 minutes	remain inactivated for at least four weeks
unmodified Taq DNA polymerase: Taq DNA polymerase (AmpliTaq®, Perkin Elmer), unmodified comparison enzyme [reference compound]	–	–	–	predominantly non-specific amplification product	predominantly non-specific amplification product	–	–
B1	–	–	–	–	greater production of specific amplification product than seen in amplifications using unmodified Taq DNA polymerase	–	–
